Source: US20160242416A1, “FUNGICIDAL ISOXAZOLINE CARBINOLS” (E I DU PONT DE NEMOURS AND COMPANY, priority 2015, published 2016)

Key:
[1] = tested on: Erysiphe graminis f sp. tritici; test: Test G: wheat powdery mildew, preventive spray on wheat seedlings; conditions: 10 ppm; wheat powdery mildew; 100 = 100% disease control, 0 = no control
[2] = tested on: Puccinia recondita f sp. tritici; test: Test F: wheat leaf rust, preventive spray on wheat seedlings; conditions: 10 ppm; wheat leaf rust; 100 = 100% disease control, 0 = no control
[3] = tested on: Stagonospora nodorum; test: Test D: wheat glume blotch, preventive spray on wheat seedlings; conditions: 10 ppm; wheat glume blotch; 100 = 100% disease control, 0 = no control
Excerpt: General protocol for preparing test solutions for Tests A-G: the test compounds were first dissolved in acetone in an amount equal to 3% of the final volume and then suspended at the desired concentration (in ppm) in acetone and purified water (50/50 mix by volume) containing 250 ppm of the surfactant PEG400 (polyhydric alcohol esters). The resulting test suspensions were then used in Tests A-G. Compounds were sprayed at a concentration of 50 ppm (*) or 10 ppm to the point of run-off on the test plants, the equivalent of a rate of 200 g/ha or 40 g/ha, respectively.
The test solution was sprayed to the point of run-off on wheat seedlings. The following day the seedlings were inoculated with a spore suspension of Stagonospora nodorum (also known as Septoria nodorum; the causal agent of wheat glume blotch) and incubated in a saturated atmosphere at 20° C. for 48 h, and then moved to a growth chamber at 20° C. for 6 days, after which time visual disease ratings were made.
Compounds with an asterisks (*) were applied at a concentration of 50 ppm, otherwise test solutions were applied at 10 ppm.

[4] = tested on: Botrytis cinerea; test: Test B: gray mold, preventive spray on tomato seedlings; conditions: 10 ppm; gray mold on tomato; 100 = 100% disease control, 0 = no control
[5] = tested on: Zymoseptoria tritici; test: Test E: wheat leaf blotch, preventive spray on wheat seedlings; conditions: 10 ppm; wheat leaf blotch; 100 = 100% disease control, 0 = no control

Structure (SMILES)	Test G rating (% disease control) [1]	Test F rating (% disease control) [2]	Test D rating (% disease control) [3]	Test B rating (% disease control) [4]	Test E rating (% disease control) [5]
Cn1nc(C(F)(F)F)cc1OCC1CC(C(O)(Cn2cncn2)C(C)(C)C)=NO1 (single isomer, unassigned) [Compound 56]	94%	97%	20%	0%	0%
CC(C)(C)C(O)(Cn1cncn1)C1=NOC(CSc2ccc(Cl)cc2)C1 (single isomer, unassigned) [Compound 27]	89%	68%	59%	51%	0%
CC(C)(C)C(O)(Cn1cncn1)C1=NOC(COCc2ccccc2)C1 (single isomer, unassigned) [Compound 60]	90%	28%	73%	0%	3%
OC(Cn1cncn1)(C1=NOC(COc2ccc(Cl)cn2)C1)c1ccc(Cl)cc1 (single isomer, unassigned) [Compound 165]	100%	99%	72%	0%	5%
CS(=O)(=O)c1ccc(C2CC(C(O)(Cn3cncn3)c3ccc(Cl)cc3)=NO2)cc1 (single isomer, unassigned) [Compound 114]	56%	36%	0%	0%	39%
CC(C)(C)C(O)(Cn1cncn1)C1=NOC(COc2ccc(-n3cccn3)cc2)C1 (single isomer, unassigned) [Compound 29]	99%	0%	49%	0%	0%
CC(C)(C)CC(O)(Cn1cncn1)C1=NOC(COc2ccc(Cl)cc2)C1 (single isomer, unassigned) [Compound 173]	97%	100%	63%	0%	6%
CC(C)(C)C(O)(Cn1cncn1)C1=NOC(CSc2ccc(Cl)cc2)C1 (single isomer, unassigned) [Compound 26]	89%	74%	70%	92%	0%
CC(C)(C)C(O)(Cn1cncn1)C1=NOC(CSc2ccccc2)C1 (single isomer, unassigned) [Compound 74]	56%	0%	0%	44%	13%
CC(C)(C)C(O)(Cn1cncn1)C1=NOC(COc2ccc3c(c2)OCO3)C1 (single isomer, unassigned) [Compound 45]	87%	67%	99%	70%	0%
OC(Cn1cncn1)(C1=NOC(c2ccc(Cl)cc2)C1)c1ccc(Cl)cc1Cl (single isomer, unassigned) [Compound 141]	84%	99%	0%	0%	1%
OC(Cn1cncn1)(C1=NOC(Cc2ccc(C(F)(F)F)cc2)C1)c1ccc(Cl)cc1 (single isomer, unassigned) [Compound 202]	99%	100%	59%	0%	21%
